According to US9655877B2, “Therapeutic methods for treating inflammation and immune system disorders” (priority 2009, dated 2017):
Several values for one entry are separate records, joined by “and”; a condition that tells them apart may be missing. Identical values can stand only once.

Columns and labels:
[1] = tested on: nitrite production in BV-2 cells; assay: LPS-induced nitrite (nitric oxide) production in BV-2 cells, Griess reagent; type: cell-based, murine; settings: 100 ng/ml LPS, 1-50 μg/ml, 18 hours
Method: Nitrite levels in the culture media were determined using Griess reagent under manufacturer's instructions (Sigma Aldrich, St. Louis, Mo.). Fresh culture media were used as blanks and the nitrite levels were determined by using a standard sodium nitrite curve.
The effect of each extract on nitric oxide production is evaluated according to the procedures illustrated as follows. Briefly, murine microglia cell line BV-2 is maintained in Dulbecco's modified Eagle's minimum essential medium (DMEM) supplemented with 10% FBS and 1% penicillin and streptomycin (Invitrogen Life Technologies, Carlsbad, Calif.) at 37° C. in a humidified atmosphere with 5% CO2 in warm air.
0.1 M cells/ml BV-2 cells are seeded in 24-well plates (0.5 ml in each well). Cells are treated with 0.05% DMSO; 0.05% DMSO and 100 ng/ml LPS; or 100 ng/ml LPS and 50 μg/ml of an LCX extract for 18 hours, respectively. The culture supernatant is collected. The nitric oxide level is measured using the Griess reagent according to standard manufacturer's instructions (Sigma Aldrich, St. Louis, Mo.), and assessed using the standard sodium nitrite curve.
The effect of senkyunolide A (Sen A) and Z-ligustilide (Z-Lig) at various concentrations on LPS-induced nitrite production is further evaluated in this Example. Briefly, 0.1 M cells/ml BV-2 cells are seeded in 24-well plates (0.5 ml in each well). Cells are treated with 0.05% DMSO; 0.05% DMSO and 100 ng/ml LPS; 50 μg/ml Sen A/Z-Lig; or 100 ng/ml LPS and Sen A/Z-Lig at a concentration of 1 μg/ml, 5 μg/ml, 10 μg/ml, 25 μg/ml, and 50 μg/ml for 18 hours, respectively. The culture supernatant is collected. The nitric oxide level is measured using the Griess reagent according to standard manufacturer's instructions (Sigma Aldrich, St. Louis, Mo.), and evaluated using the standard sodium nitrite curve.

[2] = tested on: TNF-α production in human blood macrophages; assay: LPS-induced TNF-α production in human blood macrophages (PBMac), ELISA; type: cell-based; settings: 25 or 50 μg/ml for 24 hours, then 1 ng/ml LPS for 24 hours
Method: To measure the TNF-α level in cell culture supernatants, BV-2 cells were seeded at 1×10^5 cells/ml in the volume of 0.5 ml in 24-well culture plates. They were co-treated with or without 100 ng/ml LPS in the absence or presence of indicated concentrations of bioactive compounds of LCX for 18 h. In addition, PBMac cells were seeded at 1×10^6 cells/ml in the volume of 0.5 ml in 24-well plates. After incubation, the supernatants were collected and TNF-α levels were determined by ELISA according to the manufacturer's instructions (R&D Systems). […] To study the effect of Sen A and Z-Lig at various concentrations on TNF-α production, 1×10^6 cells/ml (FIG. 6) PBMac cells are seeded in 24-well plates (0.5 ml in each well). Cells are treated with 25 μg/ml or 50 μg/ml Sen A, Z-Lig, or DMSO for 24 hours prior to the addition of 1 ng/ml LPS, and further incubated for another 24 hours. The culture supernatants are collected and the level of secreted TNF-α is measured by ELISA according to the manufacturer's instructions (R&D Systems, Minneapolis, Minn.).

Neuro-2a cells [3] = assay: Neuro-2a cells treated with compound alone in the culture media; type: cell-based, murine; settings: compound alone in the culture media (data not shown)
Excerpt: Specifically, a significant reduction in cell death, to less than 15% and 25%, respectively, was observed.

Neuro-2a cells [4] = assay: Conditioned culture medium transfer model (LPS-treated BV-2 supernatant on Neuro-2a), MTT assay; type: cell-based, murine; settings: supernatant of BV-2 cells treated with 100 ng/ml LPS and 50 μg/ml compound 18 h, on Neuro-2a 48 h; LPS only more than 40%
Method: BV-2 cells (3×10^5 cells/ml) were first treated with 100 ng/ml LPS for 18 h, in the presence of either 0.05% DMSO or 50 μg/ml senkyunolide A or Z-ligustilide. After centrifugation, the supernatants from BV-2 cells were transferred to Neuro-2a cells ([…]) for 48 h. Viability of Neuro-2a cells was measured using MTT assays. Results are shown as mean SD from three independent experiments. *p<0.05 compared with DMSO+LPS.
BV-2 cells were seeded at 3×10^5 cells/ml in 12-well culture plates (1 ml in each well). They were co-treated with or without 100 ng/ml LPS, in the presence of 0.05% DMSO, 50 μg/ml senkyunolide A, or 50 μg/ml Z-ligustilide, for 18 h. The supernatants were then collected and centrifuged at 13,200 rpm for 3 min. The resulting supernatants were then transferred to Neuro-2a cells (1×10^5 cells/ml in 24-well culture plates), which were incubated for another 48 h. Cell viability of Neuro-2a cells was measured by MTT assay.
Briefly, to investigate the physiological significance of Sen A and Z-Lig, a conditioned culture medium transfer model, commonly used for studying neuronal cell death induced by microglial activation, was adopted. After BV-2 cells were challenged with LPS, the supernatants were collected and centrifuged. The conditioned culture media were then transferred to Neuro-2a cell cultures.

[5] = tested on: TNF-α protein production in BV-2 cells; assay: LPS-induced TNF-α protein production in BV-2 cells, ELISA; type: cell-based, murine; settings: 100 ng/ml LPS, 18 hours
Method: To measure the TNF-α level in cell culture supernatants, BV-2 cells were seeded at 1×10^5 cells/ml in the volume of 0.5 ml in 24-well culture plates. They were co-treated with or without 100 ng/ml LPS in the absence or presence of indicated concentrations of bioactive compounds of LCX for 18 h. In addition, PBMac cells were seeded at 1×10^6 cells/ml in the volume of 0.5 ml in 24-well plates. After incubation, the supernatants were collected and TNF-α levels were determined by ELISA according to the manufacturer's instructions (R&D Systems).
The role of senkyunolide A (Sen A) and Z-ligustilide (Z-Lig) in suppressing TNF-α production is further evaluated in this Example. Briefly, 5×10^4 cells/ml BV-2 cells are seeded in 24-well plates (0.5 ml in each well). Cells are treated with 0.05% DMSO; 0.05% DMSO and 100 ng/ml LPS; 50 μg/ml Sen A/Z-Lig; or 100 ng/ml LPS and Sen A/Z-Lig at a concentration of 1 μg/ml, 5 μg/ml, 10 μg/ml, 25 μg/ml, and 50 μg/ml for 18 hours, respectively. The culture supernatant is collected and the level of secreted TNF-α is measured by ELISA.

**Q.** `CCC/C=C1\OC(=O)C2=C1CCC=C2` [Z-ligustilide] was tested. Which “effect on nitrite production over concentrations” value [1] did it give?
**A.** inhibits nitrite production in a dose-dependent manner

**Q.** What about the “effect on endotoxin-induced TNF-α production” value [2] of the same compound?
**A.** suppress endotoxin-induced TNF-α production in a dose-dependent manner

**Q.** What about the “cell death with compound alone” value (Neuro-2a cells [3]) of the same compound?
**A.** did not show cell death

**Q.** What about the “cell death of Neuro-2a cells” value (Neuro-2a cells [4]) of the same compound?
**A.** < 25%

**Q.** And the “effect on TNF-α production over concentrations” value ([5]; 1-50 μg/ml)?
**A.** inhibits TNF-α production in a dose-dependent manner

**Q.** What about the “concentration that significantly inhibits TNF-α production” value [5] of the same compound?
**A.** 10 µg/mL and > 10 µg/mL
